Results on one compound are retold here after ChEMBL document CHEMBL1159021, “Antitumor agents, 127. Bruceoside C, a new cytotoxic quassinoid glucoside, and related compounds from Brucea javanica” (1992).

In brackets after ≈: the same amount, converted by molar mass. Some results are limits rather than exact numbers.

What all share (format): functional
Holding throughout (conditions): read-out: ED50 (the source's name)

The test system of assay [1] is P388. The experiment in a line: Cytotoxicity against mouse P388 cells.
Assay [2] concerns HCT-8. The experiment in a line: Cytotoxicity against human HCT8 cells.
The test system of assay [3] is A549. Kind of assay: Cytotoxicity against human A549 cells.
Assay [4] has as its system KB. Kind of assay: Cytotoxicity against human KB cells.
Assay [5] relates to TE-671. Kind of assay: Cytotoxicity against human TE671 cells.
Assay [6] is described as follows: Cytotoxicity against human RPMI cells.

Turning to `COC(=O)[C@@]12OC[C@]34[C@H](OC(=O)C[C@@H]13)[C@H](OC(=O)C=C(C)C)[C@H]1C(C)=C(O[C@@H]3O[C@H](CO)[C@@H](O)[C@H](O)[C@H]3O)C(=O)C[C@]1(C)[C@H]4[C@@H](O)[C@@H]2O` [BRUCEOSIDE C], the EC50 is 5.11 µg/mL (≈ 7.49 µM) in assay [1]; 4.51 µg/mL (≈ 6.61 µM) in assay [2]; 0.44 µg/mL (≈ 0.645 µM) in assay [3]; less than 0.1 µg/mL in assay [4]; 0.29 µg/mL (≈ 0.425 µM) in assay [5]; less than 0.1 µg/mL in assay [6].
